Measurements as given in US12180193B2, “Accelerating fibrosarcoma protein degrading compounds and associated methods of use” (Arvinas Operations, Inc., priority 2020, dated 2024).

Columns and labels:
BRAF G466V = molecular target: T1, BRAF G466V (Homo sapiens, UniProt P15056, G466V); assay: Cellular assay of target protein degradation, T-Rex 293 cells stably transfected with HA-BRAF G466V (HA immunofluorescence, high content imaging); type: cell-based; conditions: T-Rex 293 HA-BRAF G466V; for DC50: half maximal degradation, read-out: BRaf G466V DC50; for Dmax: maximum degradation observed
T1 construct: expressed in transfected cells
T1 sequence (P15056 whole entry G466V): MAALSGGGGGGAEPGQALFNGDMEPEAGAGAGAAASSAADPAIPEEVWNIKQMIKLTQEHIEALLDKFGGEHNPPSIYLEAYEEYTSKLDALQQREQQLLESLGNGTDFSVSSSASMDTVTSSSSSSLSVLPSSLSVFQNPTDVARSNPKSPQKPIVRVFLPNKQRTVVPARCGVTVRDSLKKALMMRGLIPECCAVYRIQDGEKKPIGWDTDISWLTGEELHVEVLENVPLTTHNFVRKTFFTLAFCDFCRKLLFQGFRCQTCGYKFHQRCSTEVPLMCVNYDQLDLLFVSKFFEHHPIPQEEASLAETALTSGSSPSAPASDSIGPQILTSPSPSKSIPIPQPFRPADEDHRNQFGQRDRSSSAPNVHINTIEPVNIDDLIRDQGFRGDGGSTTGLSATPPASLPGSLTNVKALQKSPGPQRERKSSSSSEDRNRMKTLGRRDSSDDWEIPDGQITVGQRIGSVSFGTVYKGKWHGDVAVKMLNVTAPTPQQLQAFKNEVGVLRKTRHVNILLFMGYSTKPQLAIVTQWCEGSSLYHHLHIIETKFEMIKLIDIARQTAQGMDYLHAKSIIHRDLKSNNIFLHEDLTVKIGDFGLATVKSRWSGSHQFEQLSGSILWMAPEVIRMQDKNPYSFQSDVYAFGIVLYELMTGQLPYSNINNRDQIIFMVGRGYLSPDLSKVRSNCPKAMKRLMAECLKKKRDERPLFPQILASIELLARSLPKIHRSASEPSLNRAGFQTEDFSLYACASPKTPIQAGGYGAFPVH
Outline: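 HA-BRAF G466V levels were read by HA immunofluorescence and high-content imaging after 24 h compound exposure (final 30 nM–3 pM, 0.1% DMSO, 37 °C). Expression was induced with 0.75 ng/mL doxycycline. Outputs: half-maximal degradation concentration (DC50) and maximal degradation (Dmax) relative to control.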

BRAF V600E = molecular target: T2, BRAF V600E (Homo sapiens, UniProt P15056, V600E); assay: Cellular assay of target protein degradation, T-Rex 293 cells stably transfected with HA-BRAF_V600E (HA immunofluorescence, high content imaging); type: cell-based; conditions: T-Rex 293 HA-BRAF V600E; for DC50: half maximal degradation, read-out: BRaf V600E DC50; for Dmax: maximum degradation observed
T2 construct: expressed in transfected cells
T2 sequence (P15056 whole entry V600E): as the sequence (P15056 whole entry G466V) above, with V466G, V600E counted along it
Outline: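 HA immunofluorescence on fixed cells, imaged by high-content reader, measured loss of HA-BRAF V600E in stably transfected T-Rex 293 cells induced with 1 ng/mL doxycycline. Compounds were applied for 24 h at 37 °C (final 0.1 nM–1 μM, 0.1% DMSO); DC50 and Dmax (% of control) were reported.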

Row | SMILES | DC50 (BRAF G466V) | Dmax (BRAF G466V) | DC50 (BRAF V600E) | Dmax (BRAF V600E)
1 | O=C1CC[C@H](NC(=O)N2CCCc3c(N4CC5(CN(CCc6ccc(-c7cnc8[nH]cc(C(=O)c9c(F)ccc(NS(=O)(=O)N%10CC[C@@H](F)C%10)c9F)c8c7)cc6)C5)C4)ccnc32)C(=O)N1 [Compound 379, 5-{6-[2-(4-{3-[2,6-difluoro-3-({[(3R)-3-fluoropyrrolidin-1-yl]sulfonyl}amino)benzoyl]-1H-pyrrolo[2,3-b]pyridin-5-yl}phenyl)ethyl]-2,6-diazaspiro[3.3]heptan-2-yl}-N-[(3S)-2,6-dioxopiperidin-3-yl]-1,2,3,4-tetrahydro-1,8-naphthyridine-1-carboxamide] | 1 to 10 nM | 35 to 70% | 50 to 500 nM | 35 to 70%
2 | O=C1CC[C@@H](NC(=O)N2CCCc3c(N4CC5(CN(CCc6ccc(-c7cnc8[nH]cc(C(=O)c9c(F)ccc(NS(=O)(=O)N%10CC[C@@H](F)C%10)c9F)c8c7)cc6)C5)C4)ccnc32)C(=O)N1 [Compound 380, 5-{6-[2-(4-{3-[2,6-difluoro-3-({[(3R)-3-fluoropyrrolidin-1-yl]sulfonyl}amino)benzoyl]-1H-pyrrolo[2,3-b]pyridin-5-yl}phenyl)ethyl]-2,6-diazaspiro[3.3]heptan-2-yl}-N-[(3R)-2,6-dioxopiperidin-3-yl]-1,2,3,4-tetrahydro-1,8-naphthyridine-1-carboxamide] | 1 to 10 nM | < 35% | > 500 nM | 
3 | O=C1CCC(N2Cc3cc(N4CCC(N5CCC56CN(c5ccc(-c7cnc8[nH]cc(C(=O)c9c(F)ccc(NS(=O)(=O)N%10CC[C@@H](F)C%10)c9F)c8c7)cc5)C6)CC4)ccc3C2=O)C(=O)N1 (some centres unmarked) [Example 9] | 1 to 10 nM | 35 to 70% | 50 to 500 nM | 35 to 70%
